The results in this text go back to article PMC3813303 (Biochemistry, 2013).

This assay has as its target T1, Acel0264 (Acidothermus cellulolyticus, UniProt A0LRH8).
T1 sequence (A0LRH8 1-356): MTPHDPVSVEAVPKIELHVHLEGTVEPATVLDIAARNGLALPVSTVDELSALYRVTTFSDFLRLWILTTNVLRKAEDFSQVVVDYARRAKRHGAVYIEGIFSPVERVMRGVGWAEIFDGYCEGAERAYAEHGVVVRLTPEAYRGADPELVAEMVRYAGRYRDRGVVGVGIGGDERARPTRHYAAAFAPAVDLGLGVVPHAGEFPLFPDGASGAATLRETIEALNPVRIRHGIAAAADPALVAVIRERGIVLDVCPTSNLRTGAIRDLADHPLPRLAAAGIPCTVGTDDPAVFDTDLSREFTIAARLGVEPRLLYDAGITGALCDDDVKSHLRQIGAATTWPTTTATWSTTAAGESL
The experiment in a line: absorbance decrease at […] nm. It counts as biochemical. Particulars: read-out: Acel0264 / Km; pH 7.5, 30 °C.

Structures are written as SMILES.

Regarding `CCNC(=O)[C@H]1O[C@@H](n2cnc3c(N)ncnc32)[C@H](O)[C@@H]1O` [NECA, 1-(6-Amino-9H-purin-9-yl)-1-deoxy-N-ethyl-β-D-ribofuranuronamide], the Km was 61 µM.
